# Source: ChEMBL document CHEMBL2034842, “Synthesis, anti-Candida activity, and cytotoxicity of new (4-(4-iodophenyl)thiazol-2-yl)hydrazine derivatives” (Eur J Med Chem, 2012)
# Assays:
# Format in all cases: functional
# Escherichia coli = assay: Antibacterial activity against Escherichia coli after 18 to 22 hrs by […]
# Proteus vulgaris = assay: Antibacterial activity against Proteus vulgaris after 18 to 22 hrs by […]
# Klebsiella aerogenes = assay: Antibacterial activity against Enterobacter aerogenes after 18 to 22 hrs by […]
# Klebsiella pneumoniae = assay: Antibacterial activity against Klebsiella pneumoniae after 18 to 22 hrs by […]
# Staphylococcus aureus = assay: Antibacterial activity against Staphylococcus aureus after 18 to 22 hrs by […]
# Staphylococcus warneri = assay: Antibacterial activity against Staphylococcus warneri after 18 to 22 hrs by […]
# Streptococcus pyogenes = assay: Antibacterial activity against Streptococcus pyogenes after 18 to 22 hrs by […]
# Enterococcus faecalis = assay: Antibacterial activity against Enterococcus faecalis after 18 to 22 hrs by […]
# Candida albicans = assay: Antifungal activity against 10 strains of Candida albicans after 24 hrs by […]
# Pichia kudriavzevii = assay: Antifungal activity against 3 strains of Candida krusei after 24 hrs by […]
# Candida parapsilosis = assay: Antifungal activity against 4 strains of Candida parapsilosis after 24 hrs by […]; conditions: Lodderomyces parapsilosis
# [Candida] sake = Antifungal activity against 2 strains of Candida sake after 24 hrs by […]; conditions: Fermentozyma sake
# Nakaseomyces glabratus = assay: Antifungal activity against 4 strains of Candida glabrata after 24 hrs by […]
# Candida tropicalis = assay: Antifungal activity against 4 strains of Candida tropicalis after 24 hrs by […]
Structure (SMILES),MIC (Escherichia coli) [µg/mL],MIC (Proteus vulgaris) [µg/mL],MIC (Klebsiella aerogenes) [µg/mL],MIC (Klebsiella pneumoniae) [µg/mL],MIC (Staphylococcus aureus) [µg/mL],MIC (Staphylococcus warneri) [µg/mL],MIC (Streptococcus pyogenes) [µg/mL],MIC (Enterococcus faecalis) [µg/mL],MIC (Candida albicans) [µg/mL],MIC (Pichia kudriavzevii) [µg/mL],MIC (Candida parapsilosis) [µg/mL],MIC ([Candida] sake) [µg/mL],MIC (Nakaseomyces glabratus) [µg/mL],MIC (Candida tropicalis) [µg/mL]
Ic1ccc(-c2csc(NN=C3CCCCCC3)n2)cc1,16,16,16,> 128,> 128,> 128,32,32,0.25,64,2,64,2,0.5
Ic1ccc(-c2csc(N/N=C/c3ccco3)n2)cc1,32,16,32,32,> 128,> 128,32,32,0.5,64,2,64,4,2
C/C(=N\Nc1nc(-c2ccc(I)cc2)cs1)c1ccco1,> 128,> 128,> 128,> 128,32,32,2,8,0.25,128,2,128,2,0.5
Ic1ccc(-c2csc(N/N=C/c3cccs3)n2)cc1,> 128,> 128,> 128,> 128,32,32,2,32,2,128,2,128,4,2
C/C(=N\Nc1nc(-c2ccc(I)cc2)cs1)c1cccs1,> 128,> 128,> 128,> 128,32,32,> 128,> 128,2,2,0.5,4,4,2

# Further lines, results first:
MIC (Escherichia coli) [µg/mL],MIC (Proteus vulgaris) [µg/mL],MIC (Klebsiella aerogenes) [µg/mL],MIC (Klebsiella pneumoniae) [µg/mL],MIC (Staphylococcus aureus) [µg/mL],MIC (Staphylococcus warneri) [µg/mL],MIC (Streptococcus pyogenes) [µg/mL],MIC (Enterococcus faecalis) [µg/mL],MIC (Candida albicans) [µg/mL],MIC (Pichia kudriavzevii) [µg/mL],MIC (Candida parapsilosis) [µg/mL],MIC ([Candida] sake) [µg/mL],MIC (Nakaseomyces glabratus) [µg/mL],MIC (Candida tropicalis) [µg/mL],Structure (SMILES)
> 128,32,> 128,> 128,32,8,8,8,2,2,2,32,2,0.5,Ic1ccc(-c2csc(NN=C3CCCC3)n2)cc1
> 128,> 128,> 128,> 128,32,32,8,32,0.5,2,2,16,2,2,Ic1ccc(-c2csc(NN=C3CCCCC3)n2)cc1
16,> 128,> 128,32,8,4,8,8,0.25,128,2,128,2,0.5,CC1CCCC/C1=N\Nc1nc(-c2ccc(I)cc2)cs1 (stereo not given)
> 128,> 128,> 128,> 128,32,4,4,8,2,128,2,128,4,2,CC1CCC/C(=N\Nc2nc(-c3ccc(I)cc3)cs2)C1 (stereo not given)
> 128,> 128,> 128,> 128,32,32,2,4,0.5,64,2,64,2,2,CC1CCC(=NNc2nc(-c3ccc(I)cc3)cs2)CC1 (stereo not given)
